How the values were obtained:
[1] = molecular target: Herpes pyrimidine nucleoside kinase (HSV-tk) (Human herpesvirus 1, UniProt P0DTH5); settings: with respect to Herpes pyrimidine nucleoside kinase / HSV-tk; cited from earlier work
[2] = tested on: A375NV (no vector) melanoma cells; experiment: in vitro clonogenic assay of radiosensitivity, non-transduced cells; type: cell-based, human
From the text: (§1) For this example, a vector, termed LNSTK was kindly provided by F. Moolten which contained the HS-tk gene driven by the SV40 early promoter. Other transformation vectors containing the HS-tk retroviral vector such as the LTKOSN.2 vector by the Human Gene Therapy Research Institute (Des Moines, Iowa) are commercially available. Another such vector is the GITkSvNa vector by Genetic Therapy Inc., Gaithersburg, Md. A human A375 melanoma cell line was used because of its ease of growth and rapid colony formation in a clonogenic assay. The survival of A375NV (no vector) and A375TK (transduced with LNStk vector) after 30 GY of gamma-radiation with 0,1, or 10 µg/ml IdC is shown in FIG. 2.
(§2) […] cells were plated in a 100 cm^2 tissue culture dish in free media. The next day drug was added in the appropriate concentration. 48 hours later the cells were irradiated with 30 GY from a 250 KV X-ray machine as a single dose. The cells were then trypsinized and replated at between 2.5×10^2 and 1×10^6 cells per plate in triplicate for each data point. After twelve days the cells were fixed, stained and macroscopic colonies containing […] were counted. Measurements in the graph were corrected for plating efficiency. […] Irradiated A375 NV preincubated with 0,1 or 10 μg/ml of IdC had 18.6, 19.3 and 18.3 percent survival respectively. Irradiated A375 tk cells preincubated with 0,1, or 10 μg/ml of IdC had 15.7, 9.9 and 4.4 percent survival respectively.
(§3) In FIG. 3 another experiment is shown, design similar to Example 1. This experiment compared radio sensitivity of A375 NV and A375 tk cells after preincubation with 10 μg/ml of BrdC for 48 hours before X-ray exposure. […] Survival percentages for cells incubated with 10 μg of BrdC and then irradiated with 30 Gy were divided by the survival fraction of cells incubated with 10 μg/ml of BrdC and then mock irradiated.

[3] = tested on: A375TK (transduced with LNStk vector) melanoma cells; experiment: in vitro clonogenic assay of radiosensitivity, HS-tk transduced cells; type: cell-based, human; settings: for survival (figure legend): cells transformed with the STK vector, drug and radiation
From the text: as §1, §2, §3

[4] = tested on: mixture of 50% A375 NV and 50% A375 HS-tk cells; experiment: clonogenic assay of bystander effect, mixed cells at high density; type: cell-based, human; settings: 10 μg/ml, 30 Gy
Experimental: Without wishing to be bound by any theory it is hypothesized that HSV-tk transduced tumor cells are able to sensitize non transduced tumor cells in their vicinity through a bystander effect via metabolic cooperation. Specifically, cells that are not transduced with HS-tk gene can also be sensitized to radiation. […] These cells were plated at a density of 3×10^6 cells per 100 cm^2 tissue culture dish the afternoon prior to adding 10 μg/ml BrdC to the media. […] In contrast the experimentally obtained survival for this mixture of cells when plated together at high density was only 6.2%.

[5] = molecular target: mammalian deoxycytidine kinase (Homo sapiens, UniProt P27707); settings: with respect to mammalian deoxycytidine kinase; cited from earlier work
[6] = molecular target: T1, Mammalian thymidine kinase (Homo sapiens, UniProt P04183); settings: cited from earlier work
T1 sequence (P04183 1-234): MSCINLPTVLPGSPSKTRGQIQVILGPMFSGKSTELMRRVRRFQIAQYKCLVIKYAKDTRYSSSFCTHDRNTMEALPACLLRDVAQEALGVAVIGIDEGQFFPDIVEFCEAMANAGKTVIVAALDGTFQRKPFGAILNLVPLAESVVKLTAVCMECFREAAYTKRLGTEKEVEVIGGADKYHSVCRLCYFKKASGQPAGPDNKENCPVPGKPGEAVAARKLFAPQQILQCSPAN

mammalian cells = settings: cited from earlier work
[7] = irradiated (30 Gy) A375 tk preincubated with 10 μg/ml, before adjustment
[8] = non irradiated A375 tk, 10 μg/ml drug 48 h, compared to non-irradiated control cells not preincubated with drug

Chain of Herpes pyrimidine nucleoside kinase (HSV-tk) (P0DTH5 whole entry): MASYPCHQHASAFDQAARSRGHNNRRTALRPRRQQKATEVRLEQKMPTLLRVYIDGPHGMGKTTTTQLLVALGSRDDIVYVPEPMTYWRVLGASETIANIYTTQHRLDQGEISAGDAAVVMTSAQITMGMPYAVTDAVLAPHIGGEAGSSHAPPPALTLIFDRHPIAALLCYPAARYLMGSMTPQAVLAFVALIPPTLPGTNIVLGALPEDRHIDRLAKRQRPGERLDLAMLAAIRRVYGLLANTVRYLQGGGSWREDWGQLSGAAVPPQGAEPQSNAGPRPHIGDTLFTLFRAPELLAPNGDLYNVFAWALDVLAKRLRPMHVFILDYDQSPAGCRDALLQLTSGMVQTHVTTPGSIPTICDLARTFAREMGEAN
Chain of mammalian deoxycytidine kinase (P27707 whole entry): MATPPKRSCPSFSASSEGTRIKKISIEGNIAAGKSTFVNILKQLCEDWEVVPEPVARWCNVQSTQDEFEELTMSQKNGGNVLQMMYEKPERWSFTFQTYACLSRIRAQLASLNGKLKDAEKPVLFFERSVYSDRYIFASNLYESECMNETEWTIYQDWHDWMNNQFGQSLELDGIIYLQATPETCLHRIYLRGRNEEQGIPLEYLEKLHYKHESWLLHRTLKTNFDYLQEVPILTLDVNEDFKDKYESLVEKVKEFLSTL

| Compound | Km [1] | survival (figure legend) [3] | percent survival [3, 7] | survival [3, 8] | Km [5] | phosphorylation by mammalian thymidine kinase [6] | further results |
| --- | --- | --- | --- | --- | --- | --- | --- |
| Nc1ccn([C@H]2C[C@H](O)[C@@H](CO)O2)c(=O)n1 [Deoxycytidine, deoxycytidine, reference compound] | 500 µM |  |  |  |  |  |  |
| Nc1nc(=O)n([C@H]2C[C@H](O)[C@@H](CO)O2)cc1Br [BrdC, 5-bromo-2′-deoxycytidine] | 2 µM | less than 10% | 2.3% | 33% | 2100 µM | cannot phosphorylate | survival ([2]; 100% A375 NV plated at 3×10^6 cells per dish (about 90% confluent), 10 μg/ml, 30 Gy): 13.1%; adjusted survival (irradiated survival divided by nonirradiated surviving fraction) ([2]; A375 NV, 10 μg/ml, 30 Gy): 9%; survival ([3]; 100% A375 tk plated at 3×10^6 cells per dish (about 90% confluent), 10 μg/ml, 30 Gy): 3.5%; adjusted survival (irradiated survival divided by nonirradiated surviving fraction) ([3]; A375 tk, 10 μg/ml, 30 Gy): 6.9%; experimentally obtained survival of the mixture ([4]; 50% A375 tk and 50% A375 NV plated together at high density): 6.2%; expected survival of the mixture (half of tk plus half of NV survival) ([4]; 50% A375 tk and 50% A375 NV, theoretical): 8.3% |
| Nc1nc(=O)n([C@H]2C[C@H](O)[C@@H](CO)O2)cc1I [IdC, 5-iodo-2′-deoxycytidine] | 2 µM | less than 10% | 4.4% | 54% | 4000 µM | cannot phosphorylate | radiation potentiation in the absence of the HS-tk gene ([2]; IdC 1 or 10 μg/ml, 30 Gy): no degree radiation potentiation was seen; percent survival ([2]; irradiated (30 Gy) A375 NV preincubated with 1 μg/ml): 19.3%; percent survival ([2]; irradiated (30 Gy) A375 NV preincubated with 10 μg/ml): 18.3%; survival ([2]; non irradiated A375 NV, 10 μg/ml drug 48 h, compared to non-irradiated control cells not preincubated with drug): 73%; survival (figure legend) ([2]; nontransformed cells treated with radiation): approximately 50%; percent survival ([3]; irradiated (30 Gy) A375 tk preincubated with 1 μg/ml): 9.9% |
| O=C1NC(O)CCN1[C@@H]1O[C@H](CO)[C@@H](O)[C@H]1O (some centres unmarked) [Tetrahydrouridine, tetrahydrouridine] |  |  |  |  |  |  | safety in mammalian cells (mammalian cells): safe and non toxic |

Reference: patent publication US6342217B1, “Radiation enhanced gene therapy for tumors expressing a gene for a viral pyrimidine kinase in the presence of a 5′-halogenated pyrimidine” (Human Gene Therapy Research Institute, priority 1995, dated 2002)
